The source of these data is patent US9790169B2, “IDO inhibitors” (BRISTOL-MYERS SQUIBB COMPANY, priority 2015, dated 2017).

For this test, the target named is human IDO1 (Homo sapiens, UniProt P14902). Description: Assessment of human IDO-1 inhibitory activity in HEK cells (human IDO1/HEK293 cells, kynurenine read-out with Ehrlich reagent, absorbance 490 nm). In kind it is cell-based. Set-up: expressed in transfected cells. The conditions noted are these: HEK Human IDO-1 cellular assay. Summed up: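 HEK293 cells stably expressing human IDO1 were seeded at 10,000 per well in phenol red-free RPMI with 10% FBS, treated with compound for 20 h at 37 °C. Kynurenine was measured after TCA (0.2% final) and 30 min at 50 °C, using Ehrlich reagent, A490. IC50 normalised to DMSO (0%) and 500 nM reference standard (100%).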
human IDO1, sequence (P14902 whole entry): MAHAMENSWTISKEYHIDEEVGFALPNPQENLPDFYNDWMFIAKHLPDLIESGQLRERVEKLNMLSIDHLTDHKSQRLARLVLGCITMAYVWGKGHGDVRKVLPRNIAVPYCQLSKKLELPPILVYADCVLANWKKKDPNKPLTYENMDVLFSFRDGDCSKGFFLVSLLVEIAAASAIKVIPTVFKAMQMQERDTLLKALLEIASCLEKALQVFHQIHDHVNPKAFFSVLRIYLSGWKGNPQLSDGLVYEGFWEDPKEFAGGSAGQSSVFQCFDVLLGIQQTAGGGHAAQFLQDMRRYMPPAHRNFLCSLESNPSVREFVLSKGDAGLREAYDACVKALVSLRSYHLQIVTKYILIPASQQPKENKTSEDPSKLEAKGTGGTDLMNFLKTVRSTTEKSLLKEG

Bounds are passed on as bounds.

Broadly, the IC50 is the concentration at which inhibition is half-maximal. As to `COCC(CC(=O)O)c1ccc(N(CC(C)C)C2CCOCC2)c(NC(=O)Nc2ccc(C)cc2)c1` (single isomer, unassigned) [Example 1216, 3-(4-(Isobutyl(tetrahydro-2H-pyran-4-yl)amino)-3-(3-(p-tolyl)ureido)phenyl)-4-methoxybutanoic acid], the IC50 is less than 50 nM.

Turning to `COCC(CC(=O)O)c1ccc(N(CC(C)C)C2CCOCC2)c(NC(=O)Nc2ccc(Cl)cc2F)c1` (single isomer, unassigned) [Example 1217, 3-(3-(3-(4-Chloro-2-fluorophenyl)ureido)-4-(isobutyl(tetrahydro-2H-pyran-4-yl)amino)phenyl)-4-methoxybutanoic acid], the IC50 was less than 5 nM.

With `COCC(CC(=O)O)c1ccc(N(CC(C)C)C2CCOCC2)c(NC(=O)Nc2ccc(OC)cc2F)c1` (single isomer, unassigned) [Example 1221, 3-(3-(3-(2-Fluoro-4-methoxyphenyl)ureido)-4-(isobutyl(tetrahydro-2H-pyran-4-yl)amino)phenyl)-4-methoxybutanoic], the half-maximal inhibitory concentration (IC50) was less than 50 nM.

`CCOc1ccc(NC(=O)Nc2cc(C(COC)CC(=O)O)ccc2N(CC(C)C)C2CCOCC2)c(F)c1` (single isomer, unassigned) [Example 1222, 3-(3-(3-(4-Ethoxy-2-fluorophenyl)ureido)-4-(isobutyl(tetrahydro-2H-pyran-4-yl)amino)phenyl)-4-methoxybutanoic acid]: the IC50 was less than 50 nM.

In the case of `CCOc1ccc(NC(=O)Nc2cc(C(COC)CC(=O)O)ccc2N(CC(C)C)C2CCCCC2)cc1` (single isomer, unassigned) [Example 1231, 3-(4-(Cyclohexyl(isobutyl)amino)-3-(3-(4-ethoxyphenyl)ureido)phenyl)-4-methoxybutanoic acid], the IC50 was less than 50 nM.

Regarding `CCOc1ccc(NC(=O)Nc2cc(C(COC)CC(=O)O)ccc2N(CC(C)C)C2CCCCC2)c(F)c1` (single isomer, unassigned) [Example 1232, 3-(4-(Cyclohexyl(isobutyl)amino)-3-(3-(4-ethoxy-2-fluorophenyl)ureido)phenyl)-4-methoxybutanoic acid], the IC50 is less than 50 nM.

For `COCC(CC(=O)O)c1ccc(N(CC(C)C)C2CCCCC2)c(NC(=O)Nc2ccc(OC)cc2F)c1` (single isomer, unassigned) [Example 1233, 3-(4-(Cyclohexyl(isobutyl)amino)-3-(3-(2-fluoro-4-methoxyphenyl)ureido)phenyl)-4-methoxybutanoic acid], the IC50 is less than 5 nM.

On to `COCC(CC(=O)O)c1ccc(N(CC(C)C)C2CCCCC2)c(NC(=O)Cc2cc(C)on2)c1` (single isomer, unassigned) [Example 1234, 3-(4-(Cyclohexyl(isobutyl)amino)-3-(2-(5-methylisoxazol-3-yl)acetamido)phenyl)-4-methoxybutanoic acid], for which the IC50 is greater than 50 nM.

Regarding `CCOc1ccc(NC(=O)Nc2cc(C(COC)CC(=O)O)ccc2N(CC(C)C)C2CCCCC2)cc1` (single isomer, unassigned) [Example 1235, 3-(4-(Cyclohexyl(isobutyl)amino)-3-(3-(4-ethoxyphenyl)ureido)phenyl)-4-methoxybutanoic acid], the IC50 was less than 5 nM.

As to `CCOc1ccc(NC(=O)Nc2cc(C(COC)CC(=O)O)ccc2N(CC(C)C)C2CCCCC2)c(F)c1` (single isomer, unassigned) [Example 1236, 3-(4-(Cyclohexyl(isobutyl)amino)-3-(3-(4-ethoxy-2-fluorophenyl)ureido)phenyl)-4-methoxybutanoic acid], the IC50 is less than 5 nM.

Take `COCC(CC(=O)O)c1ccc(N(CC(C)C)C2CCCCC2)c(NC(=O)Cc2ccc(C)cc2)c1` (single isomer, unassigned) [Example 1237, 3-(4-(Cyclohexyl(isobutyl)amino)-3-(2-(p-tolyl)acetamido)phenyl)-4-methoxybutanoic acid]: the IC50 is less than 50 nM.

With `CCOc1ccc(CC(=O)Nc2cc(C(COC)CC(=O)O)ccc2N(CC(C)C)C2CCCCC2)cc1` (single isomer, unassigned) [Example 1241, 3-(4-(Cyclohexyl(isobutyl)amino)-3-(2-(4-ethoxyphenyl)acetamido)phenyl)-4-methoxybutanoic acid], the IC50 was less than 50 nM.

As to `COCC(CC(=O)O)c1ccc(N(CC(C)C)C2CCCCC2)c(NC(=O)Nc2ccc(OC(F)(F)F)cc2)c1` (single isomer, unassigned) [Example 1243, 3-(4-(Cyclohexyl(isobutyl)amino)-3-(3-(4-(trifluoromethoxy)phenyl)ureido)phenyl)-4-methoxybutanoic acid], the IC50 is less than 50 nM.

For `COCC(CC(=O)O)c1ccc(N(CC(C)C)C2CCCCC2)c(NC(=O)Nc2ccc(OC(F)(F)F)cc2)c1` (single isomer, unassigned) [Example 1244, 3-(4-(Cyclohexyl(isobutyl)amino)-3-(3-(4-(trifluoromethoxy)phenyl)ureido)phenyl)-4-methoxybutanoic acid], the IC50 was less than 5 nM.

Take `COCC(CC(=O)O)c1ccc(N(CC(C)C)C2CCCCC2)c(NC(=O)Cc2ccc(Cl)cc2F)c1` (single isomer, unassigned) [Example 1245, 3-(3-(2-(4-Chloro-2-fluorophenyl)acetamido)-4-(cyclohexyl(isobutyl)amino)phenyl)-4-methoxybutanoic acid]: the half-inhibitory concentration (IC50) is less than 5 nM.

Consider `Cc1ccc(CC(=O)Nc2cc(C(CC(=O)O)C3CC3)ccc2N(CC(C)C)C2CCCCC2)cc1` (single isomer, unassigned) [Example 1247, 3-(4-(Cyclohexyl(isobutyl)amino)-3-(2-(p-tolyl)acetamido)phenyl)-3-cyclopropylpropanoic acid], for which the IC50 was less than 5 nM.

`CCOc1ccc(CC(=O)Nc2cc(C(CC(=O)O)C3CC3)ccc2N(CC(C)C)C2CCCCC2)cc1` (single isomer, unassigned) [Example 1248, 3-(4-(Cyclohexyl(isobutyl)amino)-3-(2-(4-ethoxyphenyl)acetamido)phenyl)-3-cyclopropylpropanoic acid]: the IC50 is less than 5 nM.

Turning to `Cc1cc(CC(=O)Nc2cc(C(CC(=O)O)C3CC3)ccc2N(CC(C)C)C2CCCCC2)no1` (single isomer, unassigned) [Example 1251, 3-(4-(Cyclohexyl(isobutyl)amino)-3-(2-(5-methylisoxazol-3-yl)acetamido)phenyl)-3-cyclopropylpropanoic acid], the IC50 is less than 50 nM.

For the compound `CCOc1ncc(Nc2cc([C@@H](CC)CC(=O)NS(C)(=O)=O)ccc2N(CC)C2CCOCC2)cn1` (stereo in doubt) [Example 1076, 3-(3-((2-Ethoxypyrimidin-5-yl)amino)-4-(ethyl(tetrahydro-2H-pyran-4-yl)amino)phenyl)-N-(methylsulfonyl)pentanamide], the IC50 is less than 50 nM.

Take `CCN(c1ccc([C@@H](COC)CC(=O)NS(C)(=O)=O)cc1Nc1ccc(C#N)cc1)C1CCOCC1` (stereo in doubt) [Example 1077, 3-(3-((4-Cyanophenyl)amino)-4-(ethyl(tetrahydro-2H-pyran-4-yl)amino)phenyl)-4-methoxy-N-(methylsulfonyl)butanamide]: the IC50 was less than 50 nM.

For `CCN(c1ccc(C(C)(C)CC(=O)O)cc1Nc1ccc(Cl)cc1)C1CCC(C)(O)CC1` (stereo not drawn) [Example 1, 3-(3-((4-Chlorophenyl)amino)-4-(ethyl(4-hydroxy-4-methylcyclohexyl)amino)phenyl)-3-methylbutanoic acid], the IC50 is less than 5 nM.

On to `CCN(c1ccc(C(C)(C)CC(=O)O)cc1Nc1ccc(F)cc1)C1CCC(C)(O)CC1` (stereo not drawn) [Example 2, 3-(4-(ethyl(4-hydroxy-4-methylcyclohexyl)amino)-3-((4-fluorophenyl)amino)phenyl)-3-methylbutanoic acid], for which the IC50 was less than 5 nM.

As for `CCOc1ncc(Nc2cc(C(C)(C)CC(=O)O)ccc2N(CC)C2CCC(C)(O)CC2)cn1` (stereo not drawn) [Example 3, 3-(3-((2-ethoxypyrimidin-5-yl)amino)-4-(ethyl(4-hydroxy-4-methylcyclohexyl)amino)phenyl)-3-methylbutanoic acid], the IC50 was greater than 50 nM.

With `CCN(c1ccc(C(C)(C)CC(=O)O)cc1NC(=O)Nc1ccc(C)cc1)C1CCC(C)(O)CC1` (stereo not drawn) [Example 5, 3-(4-(Ethyl(4-hydroxy-4-methylcyclohexyl)amino)-3-(3-(p-tolyl)ureido)phenyl)-3-methylbutanoic acid], the IC50 was less than 50 nM.

`Cc1nc2ccc(Nc3cc(C(C)(C)CC(=O)O)ccc3N(CC(C)C)CC(C)C)cc2s1` [Example 146, 3-(4-(diisobutylamino)-3-((2-methylbenzo[d]thiazol-6-yl)amino)phenyl)-3-methylbutanoic acid]: the IC50 is greater than 50 nM.

Turning to `CC(C)CN(CC(C)C)c1ccc(C(C)(C)CC(=O)O)cc1Nc1ccc2c(c1)OC(F)(F)O2` [Example 147, 3-(3-((2,2-difluorobenzo[d][1,3]dioxol-5-yl)amino)-4-(diisobutylamino)phenyl)-3-methylbutanoic acid], the IC50 was less than 50 nM.

For the compound `CCOc1ncc(Nc2cc(C(C)(C)CC(=O)O)ccc2N(CC(C)C)CC(C)C)cn1` [Example 148, 3-(4-(diisobutylamino)-3-((2-ethoxypyrimidin-5-yl)amino)phenyl)-3-methyl butanoic acid], the half-inhibitory concentration (IC50) was less than 50 nM.

As to `CCOc1ncc(Nc2cc(C(C)(C)CC(=O)O)ccc2N(CC)C2CCOCC2)cn1` [Example 159, 3-(3-((2-Ethoxypyrimidin-5-yl)amino)-4-(ethyl(tetrahydro-2H-pyran-4-yl)amino)phenyl)-3-methylbutanoic acid], the IC50 was less than 50 nM.

With `CCN(c1ccc(C(C)(C)CC(=O)O)cc1Nc1ccc(C#N)cc1)C1CCOCC1` [Example 160, 3-(3-((4-cyanophenyl)amino)-4-(ethyl(tetrahydro-2H-pyran-4-yl)amino)phenyl)-3-methylbutanoic acid], the IC50 was less than 5 nM.

Turning to `CCN(c1ccc(C(C)(C)CC(=O)O)cc1Nc1ccc2c(c1)OC(F)(F)O2)C1CCOCC1` [Example 161, 3-(3-((2,2-difluorobenzo[d][1,3]dioxol-5-yl)amino)-4-(ethyl (tetrahydro-2H-pyran-4-yl)amino)phenyl)-3-methylbutanoic acid], the IC50 was less than 5 nM.
